Tests used:
mouse HCN1 (mHCN1) [1] = target: T1, mouse HCN1 (mHCN1) (Mus musculus, UniProt O88704); assay: two-electrode voltage clamp, Xenopus oocytes, Hill fit of current; assay type: cell-based
T1 construct: full-length wild-type cDNA in pGH19, cRNA expressed in Xenopus laevis oocytes; homotetrameric channel

mouse HCN1 (mHCN1) [2] = target: T1, mouse HCN1 (mHCN1); assay: as above; assay type: cell-based; conditions: read-out: relative IC50

T1 sequence (O88704 whole entry): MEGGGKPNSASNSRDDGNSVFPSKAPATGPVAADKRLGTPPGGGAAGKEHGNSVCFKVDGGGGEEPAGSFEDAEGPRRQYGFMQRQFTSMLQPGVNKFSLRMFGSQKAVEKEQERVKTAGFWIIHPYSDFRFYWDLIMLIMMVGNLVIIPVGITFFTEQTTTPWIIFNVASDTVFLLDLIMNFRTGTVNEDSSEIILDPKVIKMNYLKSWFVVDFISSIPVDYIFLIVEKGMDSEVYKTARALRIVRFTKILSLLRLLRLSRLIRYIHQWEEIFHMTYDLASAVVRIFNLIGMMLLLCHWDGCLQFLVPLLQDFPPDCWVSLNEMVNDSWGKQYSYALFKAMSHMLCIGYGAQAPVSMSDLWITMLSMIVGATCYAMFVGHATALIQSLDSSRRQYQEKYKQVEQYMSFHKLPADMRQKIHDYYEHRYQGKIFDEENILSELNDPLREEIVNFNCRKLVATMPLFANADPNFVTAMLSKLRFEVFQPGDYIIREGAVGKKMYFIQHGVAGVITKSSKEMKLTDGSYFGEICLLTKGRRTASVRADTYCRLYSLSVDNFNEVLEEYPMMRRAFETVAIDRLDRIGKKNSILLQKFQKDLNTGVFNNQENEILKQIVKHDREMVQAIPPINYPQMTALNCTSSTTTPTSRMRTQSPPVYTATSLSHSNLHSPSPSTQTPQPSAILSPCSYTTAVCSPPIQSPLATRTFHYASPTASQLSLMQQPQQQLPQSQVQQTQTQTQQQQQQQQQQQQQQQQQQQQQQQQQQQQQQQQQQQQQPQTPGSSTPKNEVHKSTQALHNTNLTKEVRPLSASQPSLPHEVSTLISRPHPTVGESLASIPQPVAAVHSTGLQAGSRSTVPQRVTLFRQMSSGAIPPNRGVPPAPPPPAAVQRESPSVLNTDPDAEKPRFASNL

SMILES: C=C(C)[C@@H]1CCC(C)=C[C@H]1c1c(O)cc(CCCCC)cc1O [cannabidiol]
- EC50 (mouse HCN1 (mHCN1) [1]): 28.5 µM

SMILES: CCCCCc1cc(O)c2c(c1)OC(C)(C)[C@@H]1CCC(C)=C[C@@H]21 [Δ9-tetrahydrocannabinol]
- IC50 (mouse HCN1 (mHCN1) [2]): 21.8 µM

Reference: PMC9019169, “Direct Regulation of Hyperpolarization-Activated Cyclic-Nucleotide Gated (HCN1) Channels by Cannabinoids” (Frontiers in Molecular Neuroscience, 2022)
